In publication PMC8772772, “Enantioselective Synthesis and Pharmacological Evaluation of Aza-CGP37157–Lipoic Acid Hybrids for the Treatment of Alzheimer’s Disease” (Antioxidants, 2022):
Read-outs that look alike come from different tables or passages of the source.

Assays:
NRF2 [1] = test: NRF2 induction, luciferase expression in AREc32 cell line; assay type: cell-based; conditions: AREc32 cells, 0.3, 3, 10 and 30 μM (LA: 0.1–0.6 mM), 24 h; mean ± SEM
Procedure: AREc32 cell line was kindly shared by Professor Roland Wolf (University of Dundee, UK). AREc32 cells were maintained in DMEM/glutamax/high glucose (Gibco, 61965-06, Madrid, Spain), supplemented with 1% penicillin–streptomycin (10,000 units) (SigmaAldrich, P4333, Madrid, Spain), geneticin (0.8 mg/mL) (Gibco, 11811-031) and 10% FBS (Gibco, 10270106), at 37 °C in a 5% CO2 air atmosphere. Cells were used from passage 4 to 18, and mycoplasma contamination was tested every 4 weeks. AREc32 cells were seeded in 96-well white plates (2 × 10^4 cells/well) for 24 h. Thereafter, cells were treated with each compound (0.3, 3, 10 and 30 µM) in duplicate for 24 h. Non-treated cells were included as basal luciferase expression and tert-butylhydroquinone (TBHQ, 10 μM) as positive control in each plate. Luciferase expression was evaluated by using the Luciferase Assay System (Promega, E1483, Madrid, Spain) by luminescence in an Orion II microplate luminometer (Berthold, Germany). Luciferase activity increase was normalized to basal conditions considered as 1. CD values (concentration required to double the luciferase activity) were calculated from dose–response curves of luciferase fold induction vs. compound concentration, fitted by non-linear regression and data interpolated to value 2.
To evaluate the influence of both stereogenic centers in the NRF2 induction capacity of aza-CGP37157-LA hybrids, we used the AREc32 cell line model by analyzing luciferase expression upon treatment with NRF2 inducers. AREc32 cells were exposed to increasing concentrations of tested compounds 7a–d (0.3, […], 10 and 30 μM) during 24 h; thereafter, luciferase expression was evaluated by luminescent assay to calculate the corresponding CD value (concentration to double luciferase expression). […] TBHQ was included as a positive control, and CGP37157, S- and R-LA, rac-3a and (rac,R)-3b and precursors derivatives (R-6 and S-6) were included for comparative purposes. […] Once R-LA is reduced, it might activate the phase II antioxidant response by acting as pro-oxidant over key Cys residues at KEAP1 to generate the corresponding lipoyl-cystinyl disulphide.

BV2 microglial cells = test: Nitrite production reduction in LPS-stimulated BV2 microglial cells (Griess); assay type: cell-based, mouse; conditions: Mus musculus, BV-2; 24 h pretreatment 0.3, 3, 10, 30 μM, then compound + LPS 100 ng/mL 18 h, Griess
Procedure: BV2 microglial cells were seeded at 2 × 10^4 cells/well and treated with compounds at increasing concentrations during 24 h in complete culture media. Then, treatments were removed, and BV2 cells were co-incubated with compounds and LPS (100 ng/mL) (O127:B8, SigmaAldrich, L3129) for additional 18 h in culture media supplemented with 1% FBS. Each plate included non-treated cells as basal nitrite production. Thereafter, nitrite production was determined by using the modified Griess assay. In brief, samples (150 μL) were mixed with DAPSONE (75 μL) (SigmaAldrich, A74807) and NEDA (75 μL) (SigmaAldrich, 33461), and the mixture was incubated at room temperature for 5 min. Light absorption was measured at 550 nm in a microplate reader (SPECTROstar nano, BMG Labtech). Basal nitrite production was referred to as 100% of nitrite production, and all data were normalized to the basal condition. Concentration needed to reduce nitrite production to 50% was calculated from graphical representation of percentage of nitrite production vs. compound concentration, and data were fitted by non-linear regression and interpolated to 50%.
Chronic neuroinflammation is considered a key pathological event in the early stages of AD development. Among immune cells present at CNS, microglia is related to host defense and tissue repair. Nonetheless, chronic neuroinflammation induced by an adverse environment of protein aggregates and exacerbated OS induces a neurotoxic activity of microglia that, finally, leads to neuronal death. […] To this end, we selected the BV2 microglial cell model stimulated by lipopolysaccharide (LPS), a TLR4 agonist that activates the pro-inflammatory response. CGP37157, R- and S-LA; analogue compounds rac-3a and (rac,R)-3b; and precursor derivatives 6 were included with comparative and reference purposes. Microglial BV2 cells were treated with increasing concentrations of the corresponding compound (0.3, 3, 10 and 30 µM) for 24 h following a pre-incubation protocol. Thereafter, treatments were exchanged by a combination of the corresponding compound at desired concentration and LPS (100 ng/mL) during 18 h. At the end of this period, nitrite production was evaluated by the Griess method as an indirect measurement of iNOS enzyme expression and BV2 activation.

NRF2 [2] = conditions: AREc32 cells, 24 h; Table S1; ref [2] of the supplement; cited from earlier work
[3] = tested on: SH-SY5Y neuroblastoma cells; test: Neuroprotection against rotenone/oligomycin A oxidative stress in SH-SY5Y cells (MTT); assay type: cell-based, human; conditions: compound 1 μM 24 h, then compound + R/O (30/10 μM) 24 h; for % Survival: basal = 100, R/O alone 53.4
Procedure: (§1) Human neuroblastoma SH-SY5Y cells were plated in 96-well clear multi-well plates (6 × 10^4 cells/well). The potential neuroprotective activity of compounds against OS was evaluated using the rotenone (30 μM) (SigmaAldrich, R8875) and oligomycin A (10 μM) (SigmaAldrich, 75351) (R/O) toxic mixture. Neuroprotection activity against Tau hyperphosphorylation was evaluated by using the okadaic acid (20 nM) model. Cells were pre-incubated with each compound (1 µM) for 24 h, and then treatments were removed and cells were incubated with compounds (1 µM) in the presence the corresponding toxic for additional 24 h. At the end of the experiments, viability was determined by the MTT method. Data were normalized from cell death induced by the toxic stimuli (considered as 100% cell death). Then, the protection percentages were calculated by subtracting from the death induced by toxic stimuli, the death in the presence of the compound.
(§2) The tetrazolium ring of MTT can be cleaved by active dehydrogenases to produce a formazan precipitate. At the end of the experiments, MTT (SigmaAldrich, M2003) stock solution was added to each well to achieve a final concentration of 0.5 mg/mL. Cells were incubated for 2 h. Thereafter, culture media was removed, and DMSO was added to each well to dissolve the formazan precipitate. Finally, absorbance was measured in a microplate reader (SPECTROstar nano, BMG Labtech) at 570 nm. Absorbance obtained in basal conditions was considered as 100% cell viability.
Thus, we selected a pre-incubation protocol to evaluate their potential neuroprotective capacity based on the NRF2-induction activity and direct antioxidant effect. Compound pre-incubation would induce the expression of antioxidant enzymes regulated by the phase II antioxidant response, thus promoting cells’ survival. The co-incubation period would also evaluate their capacity to trap free radicals produced by intoxicated mitochondria. SH-SY5Y neuroblastoma cells were treated with compounds (1 µM) during 24 h, and then cells were co-incubated with the corresponding compound at the same concentration and the R/O combination (30/10 µM) for additional 24 h. Melatonin, a well-known antioxidant natural neurohormone, was included as a positive control (1 µM). Previously reported racemic derivatives (rac-3a and (rac,R)-3b) and their precursors ((±)-6, R-6 and S-6) were included for comparative purposes at the same concentration.

[4] = tested on: SH-SY5Y neuroblastoma cells; test: Neuroprotection against okadaic acid hyperphosphorylation in SH-SY5Y cells (MTT); assay type: cell-based, human; conditions: compound 1 μM 24 h, then compound + OA 24 h; for % Survival: basal = 100, OA alone 54.7; for % Protection: n.p = compound does not protect cells
Procedure: as §1, §2
Considering these precedents, we envisaged the evaluation of our compounds in a hyperphosphorylation toxicity model induced by okadaic acid (OA), a protein phosphatase 2A inhibitor [58, 59]. This inhibition causes an imbalance between kinase and phosphatase action, leading to hyperphosphorylation of proteins, in particular, Tau. Thus, treatment of SH-SY5Y neuroblastoma cells with OA is a well-stablished model of Tau hyperphosphorylation. Similarly, to the method used for the OS model, we selected a pre-incubation/co-incubation protocol to evaluate the potential neuroprotection capacity related to the NRF2 induction/antioxidant properties of the compounds. Cells were treated with compounds (±)-6, R-6, S-6 or 7a–d (1 µM) during 24 h; thereafter, cells were co-treated with compounds (1 µM) and OA (20 nM) for a further 24 h. Melatonin was also included as a positive control. Finally, cellular viability was evaluated by the MTT method. […] Finally, the (R,S)-7c diastereomer was not able to afford any protection, a result that might be in line with its low NRF2 induction capacity.

[5] = Cytotoxicity in SH-SY5Y cell line (MTT); assay type: cell-based; conditions: human
Procedure: SH-SY5Y human neuroblastoma cells were seeded in 96-well clear multi-well plates (6 × 10^4 cells/well). Cells were treated with increasing concentrations of compounds (10, 30 and 100 μM) for 24 h. Thereafter, viability was assessed by the MTT method. Cytotoxic concentration to observe 50% mortality (CC50) values for compounds were interpolated from dose–response curves represented as percentage of cell death vs. concentration of compound, fitted by non-linear regression and data interpolated to value 50.
as §2
In order to evaluate the potential pharmacological profile of new compounds, we first tested the potential neurotoxicity in the neuroblastoma SHSY5Y cell line. Toxicity was evaluated at increasing concentrations (10, 30 and 100 μM), and toxicity was measured as MTT reduction capability. CC50 values were calculated by non-linear regression of curves % survival vs. concentration (Supplementary Materials Figure S2). CGP37157 and previously studied racemic derivatives rac-3a and (rac,R)-3b were included as reference compounds. As previously described, LA is a non-neurotoxic compound at the concentrations texted.

[6] = DPPH reduction assay, antioxidant capacity; conditions: for DPPH Scavenging at 100 µM, %: compound 100 µM; for DPPH Scavenging at 100 µM, % / DPPH Scavenging at 1mM, %: DPPH 100 µM, 30 min, mean ± SEM; for DPPH Scavenging at 1mM, %: compound 1 mM; for IC50: mean ± SEM of three experiments
Procedure: Antioxidant capacity was evaluated by using described procedure slightly modified. Compounds (0.1 and 1 mM, final concentration) were diluted in assay media (EtOH/H2O, 70:30) and mixed with 100 μL of DPPH (SigmaAldrich, D9132, Madrid, Spain) solution (100 μM final concentration) in a clear 96-multiwell plate. Final solution was kept in dark for 30 min, and absorbance of DPPH was measured in a SpectroStar Nano plate-reader (BMG Labtech, Ortenberg, Germany) in duplicate at […]. All experiments included a blank (assay media), control (DPPH 100 μM) and a positive control (ascorbic acid, 100 μM). Data were evaluated as % absorbance (Abs) reduction of control after subtracting blank absorbance. % DPPH reduction = [100 − ((Abssample − Absblank) × 100]/Abscontrol
Initially, we evaluated the free-radical-scavenging capacity of derivatives 7a–d in the DPPH assay, based on the capacity of the tested derivatives to react with the 2,2-diphenyl-1-picrylhydracil radical to generate a non-radical derivate. Hybrid derivatives 7a–d were evaluated at two different concentrations (0.1 and 1 mM), considering the activities of previously reported racemic derivatives. […] Ascorbic acid was used as a positive control, and CGP37157, rac-3a and (rac,R)-3b were included as references. […] Those results are similar to those obtained for racemic mixtures 3a and 3b and a mixture of (S,R)-7b and (R,R)-7d obtained from rac-3 and R-lipoic acid.

| IC50 (BV2 microglial cells) | IC50 [6] | Structure (SMILES) | CD (concentration required to double the specific luciferase activity) (NRF2 [1]) | CD (concentration required to double the specific luciferase activity) (NRF2 [2]) | % Survival [3] | % Survival [4] | % Protection [4] | CC50 at 24 h [5] | % Protection [3] | DPPH Scavenging at 100 µM, % [6] | DPPH Scavenging at 1mM, % [6] |
| --- | --- | --- | --- | --- | --- | --- | --- | --- | --- | --- | --- |
| > 30 µM | – | O=C(O)CCCC[C@H]1CCSS1 [(S)-Lipoic acid, reference compound] | > 600 µM | – | – | – | – | – | – | – | – |
| – | – | O=C1CN(CCO)C(c2ccccc2Cl)c2cc(Cl)ccc2N1 (racemic) [(±)-6, (rac)-7-Chloro-5-(2-chlorophenyl)-4-(2-hydroxyethyl)-4,5-dihydro-1H-benzo[e][1,4]diazepin-2(3H)-one, reference compound] | – | > 30 µM | 74.4 ± 4.1% | 69.1 ± 6.4% | 33.4% | – | – | – | – |
| – | – | O=C1CN(CCO)[C@H](c2ccccc2Cl)c2cc(Cl)ccc2N1 [Compound S-6, (5S)-7-Chloro-5-(2-chlorophenyl)-4-(2-hydroxyethyl)-4,5-dihydro-1H-benzo[e][1,4]diazepin-2(3H)-one] | 14.4 ± 0.2 µM | – | 74.7 ± 2.5% | 71.5 ± 10.0% | 41.9% | > 100 µM | 51.5% | 8.47 ± 2.42% | 25.3 ± 1.5% |
| – | 11.4 ± 1 µM | Cc1c(C)c2c(c(C)c1O)CCC(C)(C(=O)O)O2 (stereo not drawn) [Trolox, reference compound] | – | – | – | – | – | – | – | 93.4 ± 0.5% | 92.2 ± 0.5% |
| – | – | COc1ccc2[nH]cc(CCNC(C)=O)c2c1 [Mel, Melatonin, reference compound] | – | – | 68.0 ± 1.5% | 70.3 ± 4.3% | 31.1% | – | 46.1% | – | – |
| – | – | O=C1CN(CCO)[C@@H](c2ccccc2Cl)c2cc(Cl)ccc2N1 [Compound R-6, (5R)-7-Chloro-5-(2-chlorophenyl)-4-(2-hydroxyethyl)-4,5-dihydro-1H-benzo[e][1,4]diazepin-2(3H)-one] | 11.8 ± 0.5 µM | – | 75.1 ± 2.9% | 59.3 ± 10.6% | 14.2% | > 100 µM | 45.7% | 10.30 ± 1.10% | 26.7 ± 1.3% |
| – | 16.2 ± 0.7 µM | O=C1O[C@H]([C@@H](O)CO)C(O)=C1O [Ascorbic acid, reference compound] | – | – | – | – | – | – | – | – | – |
